Assay results: patent US9663478B2, “Benzotriazine oxides as drugs targeting Mycobacterium tuberculosis” (priority 2011, dated 2017)
≈ marks a conversion by molar mass, not a printed value.

Key:
[1] = tested on: Enterobacter aerogenes ATCC 29751; test: Spectrum of antimicrobial activity; type: cell-based
[2] = tested on: Enterobacter aerogenes SRI Collection; test: Spectrum of antimicrobial activity; type: cell-based
[3] = tested on: Moraxella catarrhalis ATCC 25238; test: Spectrum of antimicrobial activity; type: cell-based
[4] = tested on: Mycobacterium abscessus ATCC 19977; test: Spectrum of antimicrobial activity; type: cell-based
[5] = tested on: Acinetobacter baumannii ATCC 17978; test: Spectrum of antimicrobial activity; type: cell-based
[6] = tested on: Staphylococcus aureus HA-MRSA NRS 382; test: Spectrum of antimicrobial activity; type: cell-based
NRP Mtb H37Rv cells = test: Low-oxygen recovery assay (LORA) MIC; type: cell-based, Mycobacterium tuberculosis; conditions: Mycobacterium tuberculosis, H37RV, read-out: LORA MIC - ITR
[7] = tested on: Escherichia coli ATCC 25922; test: Spectrum of antimicrobial activity; type: cell-based
[8] = tested on: Acinetobacter baumannii BAA 1605; test: Spectrum of antimicrobial activity; type: cell-based
[9] = tested on: Salmonella typhimurium -Hisg46 SRI Collection; test: Spectrum of antimicrobial activity; type: cell-based
Escherichia coli BAA 201 = test: Spectrum of antimicrobial activity; type: cell-based
[10] = tested on: Klebsiella pneumoniae ATCC 700721; test: Spectrum of antimicrobial activity; type: cell-based
[11] = tested on: Klebsiella pneumoniae ATCC 43816; test: Spectrum of antimicrobial activity; type: cell-based
Mtb H37Rv [12] = test: TB MIC - SRI, resazurin-based microplate assay; type: cell-based, Mycobacterium tuberculosis; conditions: source CSU; SI Table 1
[13] = tested on: Enterococcus fecalis ATCC 29212; test: Spectrum of antimicrobial activity; type: cell-based
[14] = Solubility, shake-flask method; type: physicochemical; conditions: 0.9% saline solution at pH 7.4, triplicate
Protocol: The solubility of these two compounds was measured in triplicate using the shake-flask method in a 0.9% saline solution at pH 7.4. Both 8a and 20q had acceptable solubilities of 1.35 mg/mL and 0.28 mg/mL, respectively.
Compounds were ground into a fine powders using a mortar and pestle and added to a 25 mL glass Erlenmeyer flask with 5 mL of a 0.9% saline solution at pH 7.4. Approximately 20 mg of compound was added to each flask to ensure saturation. The flasks were then vigorously stirred using a magnetic stir bar at 25° C. for 48 hours. The samples were then filtered through a Whatman PVDF membrane (0.45 μm pore size) syringe filter. The concentration of compound in the supernatant was then measured using HPLC quantitation at the maximum absorption wavelength for each compound.

[15] = tested on: Mycobacterium smegmatis ATCC 10143; test: Spectrum of antimicrobial activity; type: cell-based
[16] = Plasma pharmacokinetics in female mice after oral administration; type: in vivo, mouse; conditions: 100 mg/kg
Protocol: In order to validate BTOs as a new lead series for the treatment of TB, we also evaluated their systemic exposure in the mouse after oral administration. A single dose (100 mg/kg) of 8a and 20q were administered to mice in order to profile the pharmacokinetics for the BTOs (Table 7). […] The elimination half-life was for each compound was shorter than our ideal target values, but the Tmax values indicate that they are rapidly absorbed after oral administration (FIGURE).
All pharmacokinetic studies were performed in accordance with SRI International's animal care policies in an AAALAC and OLAW accredited facility. The procedure for the pharmacokinetics studies followed a previously described method.^55 Briefly, the plasma pharmacokinetics of selected BTO derivatives were determined in female CD1 mice after administration of a single dose (100 mg/kg) by oral gavage. Blood was collected from three mice per time point at 5, 15, 30, and 60 min and 2, 4, 6, 8, and 24 h after dose administration. Means and standard deviations were calculated for the plasma drug concentrations at each time point. Pharmacokinetic analysis was performed using non compartmental methods (WinNonlin® Professional, Version 5.2, Pharsight Corp, Mountain View, Calif.). The following parameters were calculated: time to maximum plasma concentration (Tmax), maximum plasma concentration (Cmax), maximum plasma concentration extrapoloated to time 0 (C0), area under the plasma concentration-time curve to the last time point (AUClast) and to infinity (AUCinf).

[17] = tested on: Enterococcus fecalis ATCC 51575; test: Spectrum of antimicrobial activity; type: cell-based
[18] = tested on: Escherichia coli pKM101 SRI Collection; test: Spectrum of antimicrobial activity; type: cell-based
Mtb H37Rv [19] = test: TB MIC - ITR (UIC), Institute for Tuberculosis Research; type: cell-based, Mycobacterium tuberculosis; conditions: Mycobacterium tuberculosis, H37RV; Tables 1-4; read-out: TB MIC - ITR
[20] = tested on: Salmonella choleraesuis ATCC 13311; test: Spectrum of antimicrobial activity; type: cell-based
[21] = tested on: Staphylococcus aureus ATCC 29213; test: Spectrum of antimicrobial activity; type: cell-based
[22] = tested on: Enterococcus faecium ATCC 19434; test: Spectrum of antimicrobial activity; type: cell-based
[23] = tested on: Pseudomonas aeruginosa ATCC 27853; test: Spectrum of antimicrobial activity; type: cell-based

CCNc1n[n+]([O-])c2ccccc2[n+]1[O-] [Compound 8a, 3-(ethylamino)benzo[e][1,2,4]triazine 1,4-dioxide]
Antimicrobial activity, Enterobacter aerogenes [1]: >32 µg/mL | Antimicrobial activity, Enterobacter aerogenes [2]: >32 µg/mL | Antimicrobial activity, Moraxella catarrhalis [3]: 32 µg/mL | susceptibility of M. abscessus [4]: resistant | Antimicrobial activity, Mycobacterium abscessus ([4]; ATCC 19977): >32 µg/mL | Antimicrobial activity, Acinetobacter baumannii [5]: 32 µg/mL | Antimicrobial activity, Staphylococcus aureus HA-MRSA [6]: 16 to 32 µg/mL | MIC (NRP Mtb H37Rv cells): 0.37 µg/mL (≈ 1.79 µM) | Antimicrobial activity, Escherichia coli [7]: 16 µg/mL | Antimicrobial activity, Acinetobacter baumannii [8]: >32 µg/mL | Antimicrobial activity, Salmonella typhimurium -Hisg46 [9]: >32 µg/mL | Antimicrobial activity, Escherichia coli (Escherichia coli BAA 201): 16 µg/mL | Antimicrobial activity, Klebsiella pneumoniae [10]: >32 µg/mL | Antimicrobial activity, Klebsiella pneumoniae [11]: >32 µg/mL | Antimicrobial activity, Mtb H37Rv (Mtb H37Rv [12]): 1.2 µg/mL | Antimicrobial activity, Enterococcus fecalis [13]: 16 µg/mL | solubility [14]: 1350 µg/mL (≈ 6550 µM) | Antimicrobial activity, Mycobacterium smegmatis [15]: 5.0 µg/mL | AUCinf ([16]; female mice, oral): 6937 ng·h/mL | AUClast ([16]; female mice, oral): 6578 ng·h/mL | Cmax ([16]; female mice, oral): 9540 ng/mL | Tmax ([16]; female mice, oral): 4.8 min | t1/2 ([16]; female mice, oral): 90 min | plasma drug concentration at the 24 hr time point ([16]; mouse, in vivo, po): lower than the limit of quantitation | Antimicrobial activity, Enterococcus fecalis [17]: 32 µg/mL | Antimicrobial activity, Escherichia coli pKM101 [18]: 32 μg/mL | MIC (Mtb H37Rv [19]): 0.57 µg/mL (≈ 2.76 µM) | Antimicrobial activity, Salmonella choleraesuis [20]: 32 µg/mL | Antimicrobial activity, Staphylococcus aureus [21]: >32 µg/mL | Antimicrobial activity, Enterococcus faecium [22]: >32 µg/mL | Antimicrobial activity, Pseudomonas aeruginosa [23]: >32 µg/mL
